Paper PMC4598832 (Scientific Reports, 2015)
Where a chain is given by its changes, count along the chain named. Several values for one entry are separate records, joined by “and”; a condition that tells them apart may be missing. Identical values can stand only once. Entries after “also recorded” stand apart in the source; their conditions may differ. Like-named read-outs stand apart in the source and are kept apart here.

Key:
Olfr74 A113S-A208E-F260Y = assay: cAMP reporter gene (SEAP) assay, Olfr74 triple mutant in Hana3A cells; type: cell-based, mouse; settings: result in words
Description: Confluent Hana 3A cells (35000 cells per well) cultured in a 96-well plate at 37 °C (Perkin-Elmer) were transfected with 0.15 μg of wild-type or mutated Olfr73 or Olfr74 encoding plasmid DNAs and 0.15 μg of the cAMP response element secreted alkaline phosphatase reporter plasmid (pCRE-SEAP) using Lipofectamine 2000 (Invitrogen). Cells were induced 8 h after transfection with cell medium containing the ligand, or cell medium alone. For screening compound library, stock solutions of odorants (0.2–1 M) were prepared from pure compounds either in dimethyl sulfoxide (DMSO, Sigma-Aldrich, Buchs, CH) or ethanol and were stored at −20 °C. […] A relative SEAP activity [(n-1) times mock level] was calculated for each odorant mixture and those that induced an activity larger than 1 were considered for further analysis.
For odorant dose-dependent measurements of cAMP signaling specific ligands were added at increasing concentrations and measured in duplicates. Odorant-induced responses were measured using the SEAP activity reporter assay 16 h after stimulation. […] The kinetics of hydrolysis of p-nitrophenol phosphate by alkaline phosphatase was determined by measuring the absorbance at 410 nm using a multiwell plate reader (SpectraMax 360, Molecular Devices). […]

Olfr73 S113A-E208A-Y260F = target: T1, Olfr73 S113A-E208A-Y260F (Mus musculus, UniProt Q920P2, E208A/S113A/Y260F); assay: cAMP reporter gene (SEAP) assay, Olfr73 triple mutant in Hana3A cells; type: cell-based
T1 construct: Rho (rhodopsin) tag; Myc; expressed in transfected cells; host or cells: Hana 3A cells
T1 sequence (Q920P2 1-313 S113A/E208A/Y260F): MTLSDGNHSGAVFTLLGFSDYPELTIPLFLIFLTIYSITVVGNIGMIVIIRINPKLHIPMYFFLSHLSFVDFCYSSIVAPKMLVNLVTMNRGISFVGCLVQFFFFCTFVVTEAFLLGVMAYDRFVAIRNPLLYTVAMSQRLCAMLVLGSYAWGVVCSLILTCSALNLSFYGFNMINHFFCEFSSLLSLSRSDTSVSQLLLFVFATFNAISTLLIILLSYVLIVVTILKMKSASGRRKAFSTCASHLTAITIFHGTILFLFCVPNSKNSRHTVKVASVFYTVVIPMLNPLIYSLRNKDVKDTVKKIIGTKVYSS

Olfr73 (mOR-EG) wt = target: T2, Olfr73 (mOR-EG) wt (Mus musculus, UniProt Q920P2); assay: cAMP reporter gene (SEAP) assay, Olfr73 wild type in Hana3A cells; type: cell-based
T2 construct: Rho (rhodopsin) tag; Myc; Flag; expressed in transfected cells; host or cells: Hana 3A cells
T2 sequence (Q920P2 1-313): T1 sequence (Q920P2 1-313 S113A/E208A/Y260F) with A113S, A208E, F260Y

Olfr74 A113S = Olfr74 A113S (Mus musculus, UniProt Q920P1, A113S); assay: cAMP reporter gene (SEAP) assay, Olfr74 A113S in Hana3A cells; type: cell-based
Chain of Olfr74 A113S (Q920P1 entry or part of it A113S): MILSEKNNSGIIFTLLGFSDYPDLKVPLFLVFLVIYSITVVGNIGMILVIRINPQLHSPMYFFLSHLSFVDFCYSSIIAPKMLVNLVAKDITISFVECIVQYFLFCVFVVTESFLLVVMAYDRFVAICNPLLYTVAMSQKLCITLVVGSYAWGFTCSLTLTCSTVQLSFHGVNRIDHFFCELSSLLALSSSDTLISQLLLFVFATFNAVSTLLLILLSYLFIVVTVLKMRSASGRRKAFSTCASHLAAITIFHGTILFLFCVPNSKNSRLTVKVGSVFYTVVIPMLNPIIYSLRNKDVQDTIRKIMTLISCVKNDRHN
Description: (§1) Confluent Hana 3A cells (35000 cells per well) cultured in a 96-well plate at 37 °C (Perkin-Elmer) were transfected with 0.15 μg of wild-type or mutated Olfr73 or Olfr74 encoding plasmid DNAs and 0.15 μg of the cAMP response element secreted alkaline phosphatase reporter plasmid (pCRE-SEAP) using Lipofectamine 2000 (Invitrogen). Cells were induced 8 h after transfection with cell medium containing the ligand, or cell medium alone. For screening compound library, stock solutions of odorants (0.2–1 M) were prepared from pure compounds either in dimethyl sulfoxide (DMSO, Sigma-Aldrich, Buchs, CH) or ethanol and were stored at −20 °C. Mixtures of 5 to 10 odorants prepared form stock solutions, were diluted in serum-free DMEM and applied to the cells 8 hours after transfection (<100 μM, final individual odorant concentration). Experiments were carried out in triplicates and in parallel with a mock control (cells transfected with non-coding plasmid DNA). A relative SEAP activity [(n-1) times mock level] was calculated for each odorant mixture and those that induced an activity larger than 1 were considered for further analysis.
For odorant dose-dependent measurements of cAMP signaling specific ligands were added at increasing concentrations and measured in duplicates. Odorant-induced responses were measured using the SEAP activity reporter assay 16 h after stimulation. An aliquot of supernatant from each well was then mixed with an equal volume of 1 M diethanolamine bicarbonate (pH 9.8) containing 20 mM p-nitrophenyl phosphate and 1 mM MgCl2 (Sigma). The kinetics of hydrolysis of p-nitrophenol phosphate by alkaline phosphatase was determined by measuring the absorbance at 410 nm using a multiwell plate reader (SpectraMax 360, Molecular Devices). […] Dose response curves and EC50 values were then determined by fitting these points with the Hill equation using IGOR Pro software (WaveMetrics, Portland, OR, USA). Statistical significance of the differences in EC50 values was analyzed using a two-tailed Student’s t test. p values below 0.05 were considered as being significant.

Olfr73 S113A = target: T3, Olfr73 S113A (Mus musculus, UniProt Q920P2, S113A); assay: cAMP reporter gene (SEAP) assay, Olfr73 S113A in Hana3A cells; type: cell-based
T3 construct: Rho (rhodopsin) tag; expressed in transfected cells; host or cells: Hana 3A cells
T3 sequence (Q920P2 1-313 S113A): T1 sequence (Q920P2 1-313 S113A/E208A/Y260F) with A208E, F260Y

Olfr74 F260Y = Olfr74 F260Y (Mus musculus, UniProt Q920P1, F260Y); assay: cAMP reporter gene (SEAP) assay, Olfr74 F260Y in Hana3A cells; type: cell-based
Chain of Olfr74 F260Y (Q920P1 entry or part of it F260Y): as the sequence (Q920P1 entry or part of it A113S) above, with S113A, F260Y counted along it
Description: as §1
For odorant dose-dependent measurements of cAMP signaling specific ligands were added at increasing concentrations and measured in duplicates. Odorant-induced responses were measured using the SEAP activity reporter assay 16 h after stimulation. An aliquot of supernatant from each well was then mixed with an equal volume of 1 M diethanolamine bicarbonate (pH 9.8) containing 20 mM p-nitrophenyl phosphate and 1 mM MgCl2 (Sigma). The kinetics of hydrolysis of p-nitrophenol phosphate by alkaline phosphatase was determined by measuring the absorbance at 410 nm using a multiwell plate reader (SpectraMax 360, Molecular Devices). To remove SEAP activity background noise from the measurements, the mean value of mock control SEAP activity (Supplementary Figures 8 and 9) was subtracted from the mean value of OR-induced SEAP activity for each odorant concentration. Dose response curves and EC50 values were then determined by fitting these points with the Hill equation using IGOR Pro software (WaveMetrics, Portland, OR, USA). Statistical significance of the differences in EC50 values was analyzed using a two-tailed Student’s t test. p values below 0.05 were considered as being significant.

Olfr73 E208A = target: T4, Olfr73 E208A (Mus musculus, UniProt Q920P2, E208A); assay: cAMP reporter gene (SEAP) assay, Olfr73 E208A in Hana3A cells; type: cell-based
T4 construct: Rho (rhodopsin) tag; Myc; expressed in transfected cells; host or cells: Hana 3A cells
T4 sequence (Q920P2 1-313 E208A): T1 sequence (Q920P2 1-313 S113A/E208A/Y260F) with A113S, F260Y

Olfr74 (mOR-EV) wt = target: T5, Olfr74 (mOR-EV) wt (Mus musculus, UniProt Q920P1); assay: cAMP reporter gene (SEAP) assay, Olfr74 wild type in Hana3A cells; type: cell-based; settings: for activation of Olfr74 wild type: result in words
T5 sequence (Q920P1 1-318): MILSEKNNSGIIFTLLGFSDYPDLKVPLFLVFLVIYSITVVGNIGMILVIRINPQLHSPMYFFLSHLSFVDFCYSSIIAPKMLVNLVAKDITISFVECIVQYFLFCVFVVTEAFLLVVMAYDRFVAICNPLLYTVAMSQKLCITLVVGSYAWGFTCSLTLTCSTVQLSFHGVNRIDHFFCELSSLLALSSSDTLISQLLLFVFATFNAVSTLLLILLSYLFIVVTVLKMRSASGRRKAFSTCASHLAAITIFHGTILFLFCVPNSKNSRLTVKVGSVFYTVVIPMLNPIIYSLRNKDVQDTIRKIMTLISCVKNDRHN

Olfr73 Y260F = target: T6, Olfr73 Y260F (Mus musculus, UniProt Q920P2, Y260F); assay: cAMP reporter gene (SEAP) assay, Olfr73 Y260F in Hana3A cells; type: cell-based
T6 construct: Rho (rhodopsin) tag; Myc; expressed in transfected cells; host or cells: Hana 3A cells
T6 sequence (Q920P2 1-313 Y260F): T1 sequence (Q920P2 1-313 S113A/E208A/Y260F) with A113S, A208E
Description: Confluent Hana 3A cells (35000 cells per well) cultured in a 96-well plate at 37 °C (Perkin-Elmer) were transfected with 0.15 μg of wild-type or mutated Olfr73 or Olfr74 encoding plasmid DNAs and 0.15 μg of the cAMP response element secreted alkaline phosphatase reporter plasmid (pCRE-SEAP) using Lipofectamine 2000 (Invitrogen). Cells were induced 8 h after transfection with cell medium containing the ligand, or cell medium alone. […] Experiments were carried out in triplicates and in parallel with a mock control (cells transfected with non-coding plasmid DNA).

Olfr74 = tested on: Olfr74; set-up: method as in PMID 12767924; settings: HEK cells ref 31; cited from earlier work
[1] = dash in Table 1 = no measurable response, read-out: EC50 Olfr73 S113A-E208A-Y260F
[2] = Hana3A cells, SEAP reporter, dash in Table 1 = no measurable response, read-out: EC50 Olfr73 wt
[3] = rounded values derived from Fig. 2 and Supplementary Fig. 4, unit inferred, read-out: EC50 Olfr73 (WT), Supplementary Table 1
[4] = dash in Table 1 = no measurable response, read-out: EC50 Olfr73 S113A
[5] = EC50 Olfr74 (F260Y), Supplementary Table 1, rounded values derived from Fig. 2 and Supplementary Fig. 4, unit inferred
[6] = EC50 Olfr74 F260Y, Hana3A cells, SEAP reporter
[7] = Hana3A cells, SEAP reporter, read-out: EC50 Olfr73 E208A
[8] = Hana3A cells, SEAP reporter, read-out: EC50 Olfr74 wt
[9] = rounded values derived from Fig. 2 and Supplementary Fig. 4, unit inferred, read-out: EC50 Olfr74 (WT), Supplementary Table 1
[10] = EC50 Olfr73 (E208A), Supplementary Table 1, rounded values derived from Fig. 2 and Supplementary Fig. 4, unit inferred
[11] = EC50 Olfr73 E208A, Hana3A cells, SEAP reporter
[12] = read-out: EC50 Olfr73 S113A-E208A-Y260F, dash in Table 1 = no measurable response
[13] = read-out: EC50 Olfr73 S113A, dash in Table 1 = no measurable response
[14] = dash in Table 1 = no measurable response, read-out: EC50 Olfr73 Y260F
[15] = EC50 Olfr73 wt, Hana3A cells, SEAP reporter, dash in Table 1 = no measurable response

SMILES | EC50 (Olfr73 S113A-E208A-Y260F; [1]) | EC50 (Olfr73 (mOR-EG) wt; [2]) | EC50 (Olfr73 (mOR-EG) wt; [3]) | EC50 (Olfr74 A113S) | EC50 (Olfr73 S113A; [4]) | EC50 (Olfr74 F260Y; [5]) | EC50 (Olfr74 F260Y; [6]) | EC50 (Olfr73 E208A; [7]) | EC50 (Olfr74 (mOR-EV) wt; [8]) | EC50 (Olfr74 (mOR-EV) wt; [9]) | EC50 (Olfr73 E208A; [10]) | EC50 (Olfr73 E208A; [11]) | EC50 (Olfr73 S113A-E208A-Y260F; [12]) | EC50 (Olfr73 S113A; [13]) | EC50 (Olfr73 Y260F; [14]) | activation of Olfr74 wild type (Olfr74 (mOR-EV) wt; Hana3A cells, SEAP reporter) | EC50 (Olfr73 (mOR-EG) wt; [15]) | also measured
CC(C)=CC1CC(C)CCO1 (centres unmarked) [Rose Oxide, rose oxide] | > 100 µM | 35 ± 20 µM | 30 µM | > 100 µM | 23 ± 24 µM | 40 µM | 42 µM and ~40 µM | ~10 µM and 10 µM | 155 ± 21 µM | > 100 µM |  |  |  |  |  |  |  | activation of Olfr74 triple mutant (A113S, A208E, F260Y) (Olfr74 A113S-A208E-F260Y): no detectable activation
CCC=CCC1=C(C)CCC1=O [Jasmone, 3-methyl-2-(pent-2-enyl)-cyclopent-2-enone] |  |  | > 100 µM | 71 µM and ~70 µM |  | 10 µM | 8 µM and ~10 µM |  | 28 µM and ~30 µM | 30 µM | 70 µM | 66 ± 9 µM |  |  |  |  |  | EC50 (Olfr73 S113A-E208A-Y260F; EC50 Olfr73 S113A-E208A-Y260F, dash in Table 1 = no measurable response): 83 ± 11 µM; activation of Olfr73 wild type (Olfr73 (mOR-EG) wt; Hana3A cells, SEAP reporter, result in words): inactive; EC50 (Olfr73 S113A; EC50 Olfr73 S113A, dash in Table 1 = no measurable response): > 100 µM
C/C=C/c1ccc(OC)c(OC)c1 [MIEG, methyl isoeugenol] |  | 131 ± 19 µM |  |  |  |  | 406 ± 23 µM |  |  |  |  | 10 ± 5 µM | > 100 µM | > 100 µM | > 100 µM | do not activate |  | 
CCOc1cc(C=O)ccc1O [Ethyl vanillin, ethyl vanillin] | > 100 µM |  |  |  | 202 ± 44 µM |  | 171 ± 35 µM | 147 ± 11 µM |  |  |  |  |  |  |  |  | 35 ± 4 µM | cAMP signalling upon stimulation of Olfr74 (Olfr74): no cAMP signalling; activation of Olfr74 wild type (Olfr74 (mOR-EV) wt; Hana3A cells, SEAP reporter, listed as ethyl vanillin): no detectable activation; activation of Olfr74 wild type (Olfr74 (mOR-EV) wt; Hana3A cells, SEAP reporter, listed as ethyl-vanillin): no response was detected; also recorded: do not activate
C=C(C)[C@@H]1CCC2=CC(=O)C[C@@H](C)[C@]2(C)C1 [Nootkatone, nootkatone] |  |  |  | 78 µM and ~80 µM |  | 40 µM | 35 µM and ~40 µM |  | 86 µM and ~90 µM | 90 µM | > 100 µM | 277 ± 54 µM | > 100 µM | > 100 µM |  |  | 225 ± 76 µM | EC50 (Olfr73 (mOR-EG) wt; EC50 Olfr73 (WT), Supplementary Table 1, rounded values derived from Fig. 2 and Supplementary Fig. 4, unit inferred): > 100 µM; EC50 (Olfr73 Y260F; read-out: EC50 Olfr73 Y260F, dash in Table 1 = no measurable response): > 100 µM
COC(=O)c1ccc(O)c(OC)c1 [Methyl vanillate, methyl vanillate] | > 100 µM | 240 µM and 241 µM |  |  | > 100 µM |  | 447 ± 36 µM | 347 ± 32 µM |  |  |  |  |  |  | > 100 µM | do not activate |  | 
